Assay results: patent US20260159510A1, “HETEROCYCLIC COMPOUND, PREPARATION METHOD THEREFOR AND USE THEREOF” (GUANGZHOU DAGUANG PHARMACEUTICAL CO., LTD., priority 2022, published 2026)
Marks after values point to notes of the source that are not given here.

What was measured:
Format in all cases: in vivo, SD rats
[1] = test system: rat models with focal cerebral ischemia-reperfusion (tMCAO); assay: Percentage of cerebral infarction area (TTC staining) in tMCAO model rats; conditions: Gavage, about 24 h after last administration, x ± s
Description: (§1) Rat models with focal cerebral ischemia-reperfusion (tMCAO) were prepared by using a suture-occluded method, and therapeutic effects of the test drugs on the tMCAO model rats were investigated.
(§2) A specific modeling method for the rat models with focal cerebral ischemia-reperfusion (tMCAO) is as follows. At 12 h before surgery, the rats were fed at about 30 g/piece. After induced anesthesia with 3-4% isoflurane and maintained anesthesia with 1.5-2.5% isoflurane were performed, the rats were placed at supine positions on an operating table at a constant temperature of 37° C. The skin in middle lines of necks was cut, subcutaneous tissues and muscles were bluntly separated, and common carotid arteries on right sides, internal carotid arteries and external carotid arteries were separated. Two ligation threads were allowed to penetrate through the external carotid arteries to ligate distal ends, an artery clamp was placed at the common carotid arteries and the internal carotid arteries, respectively, small incisions were made at 45° diagonally on the external carotid arteries at about 4 mm away from bifurcations of the common carotid arteries, and suitable suture occlusions were inserted to gently ligate proximal ends. The external carotid arteries were cut, directions and angles of the suture occlusions were adjusted, the suture occlusions were gently pushed and inserted into the internal carotid arteries, and then the artery clamps were released. The suture occlusions were continuously inserted until black dot marks of the suture occlusions reached junctions of the internal carotid arteries and the common carotid arteries at a length of about 18-20 mm. The proximal ends of the external carotid arteries were tightened, the suture occlusions were fixed, the skin was sutured after it was confirmed that there was no bleeding, the body temperature of the rats was maintained, and meloxicam as an analgesic drug was injected subcutaneously at 1 mg/kg.
(§3) At 2 h after ischemia, induced anesthesia with 3-4% isoflurane and maintained anesthesia with 1.5-2.5% isoflurane were performed, the skin sutures were cut, the ligation threads at the proximal ends of the external carotid arteries were opened, the suture occlusions were taken out, reperfusion was performed, ligation was performed again, and the skin was sutured after it was confirmed that there was no bleeding. In a sham-operated control group, other steps were the same as above except that the suture occlusions were inserted and pulled out immediately and the reperfusion was not required. After the surgery, the rats were allowed to lie prostrate and return to a cage.
(§4) When the animals were awake after modeling, behavioral scoring was performed on the animals with reference to a 4-point scoring standard of Zea longa. The animals with scores of 1-3 points were judged as successfully modeled animals, and the animals not meeting requirements were eliminated.
(§5) Method: SPF-grade male SD rats were used, the various tMCAO rat models were prepared by using the suture-occluded method, and the successfully modeled animals were randomly divided into 6 groups including a model control group, a test drug group 1, a test drug group 2, a test drug group 3, a test drug group 4 and a test drug group 5, with 6 or more animals in each group. In addition, the sham-operated control group was set, which involved 6 animals with the suture occlusions inserted and pulled out immediately in the surgery. […]

[2] = test system: rat models with focal cerebral ischemia-reperfusion (tMCAO); assay: Cerebral blood flow in tMCAO model rats; conditions: x ± s; for Cerebral blood flow 24 h after last administration / Cerebral blood flow improvement percentage / Recovery percentage of cerebral blood flow 24 h after last administration: 24 h after last of 3 administrations, 3×10^−5 mol/kg; for Cerebral blood flow before administration / Decrease percentage of cerebral blood flow before administration: after ischemia, before first administration; for Cerebral blood flow before ischemia: baseline before surgery, before any administration
Description: as §1, §2, §3, §4
as §5, with “surgery. At 4 h after the cerebral ischemia (at 4 h after the suture occlusions were pulled out in the sham-operated group), the various groups were given the various drugs or a vehicle for the first time. In each group, an administration dose was 3×10^−5 mol/kg, an administration volume was 3 mL/kg, administration was performed for a total of 3 times, and an administration time interval of every two times was 24 h.” for “surgery.”

[3] = test system: rat models with focal cerebral ischemia-reperfusion (tMCAO); assay: Rotarod test (latent period of falling) in tMCAO model rats; conditions: Gavage, 3 × 10^−5 mol/kg, 3 administrations, about 24 h after last administration, x ± s
Description: as §1, §2, §3, §4, §5

[4] = test system: rat models with focal cerebral ischemia-reperfusion (tMCAO); assay: Behavioral scoring of tMCAO model rats; conditions: about 24 h after last administration, x ± s
Description: as §1, §2, §3, §4, §5

[5] = test system: rat models with focal cerebral ischemia-reperfusion (tMCAO); assay: Drug efficacy test in tMCAO model rats, overall result; conditions: latent period of falling, behavioral scores, infarction area, cerebral blood flow
Description: as §1
A specific modeling method for the rat models with focal cerebral ischemia-reperfusion (tMCAO) is as follows. At 12 h before surgery, the rats were fed at about 30 g/piece. After induced anesthesia with 3-4% isoflurane and maintained anesthesia with 1.5-2.5% isoflurane were performed, the rats were placed at supine positions on an operating table at a constant temperature of 37° C. The skin in middle lines of necks was cut, subcutaneous tissues and muscles were bluntly separated, and common carotid arteries on right sides, internal carotid arteries and external carotid arteries were separated. Two ligation threads were allowed to penetrate through the external carotid arteries to ligate distal ends, an artery clamp was placed at the common carotid arteries and the internal carotid arteries, respectively, small incisions were made at 45° diagonally on the external carotid arteries at about 4 mm away from bifurcations of the common carotid arteries, and suitable suture occlusions were inserted to gently ligate proximal ends. […]

SMILES	Percentage of cerebral infarction area ([1]; 3 × 10^−5 mol/kg) [%]	Cerebral blood flow 24 h after last administration [2] [BPU]	Cerebral blood flow improvement percentage [2]	Recovery percentage of cerebral blood flow 24 h after last administration [2]	Cerebral blood flow before administration [2] [BPU]	Decrease percentage of cerebral blood flow before administration [2] [%]	Cerebral blood flow before ischemia [2] [BPU]	Latent period of falling (rotarod test) [3]	Behavioral score ([4]; route printed as Intravenous injection and Gavage, 3 × 10^−5 mol/kg)	Behavioral score ([4]; Gavage, 3 × 10^−5 mol/kg)	Percentage of cerebral infarction area ([1]; 6 × 10^−5 mol/kg)	Overall therapeutic effect in tMCAO rats (in words; vs model control group and between test drug groups) [5]	Behavioral score ([4]; Gavage, 6 × 10^−5 mol/kg)
Cc1cc(OC(=O)c2cccnc2)n(-c2nc(C)c(C)nc2C)n1 [Test drug 1, 3-methyl-1-(3,5,6-trimethylpyrazin-2-yl)-1H-pyrazol-5-nicotinate]	4.6 ± 1.2	304.8 ± 12.7	28.7 ± 4.9 %	87.8 ± 2.0 %	204.6 ± 10.3	40.9 ± 5.2	347.5 ± 19.3	48.7 ± 14.0 s	1.9 ± 0.6				
CC(=O)Oc1cc(C)nn1-c1nc(C)c(C)nc1C [Test drug 2, 3-methyl-1-(3,5,6-trimethylpyrazin-2-yl)-1H-pyrazol-5-acetate]	5.8 ± 2.2	367.8 ± 36.9	20.9 ± 13.8 %	79.3 ± 8.9 %	213.3 ± 16.6	41.6 ± 8.6	371.8 ± 51.6	35.2 ± 23.3 s		2.3 ± 0.7			
CC(=O)Oc1ccccc1C(=O)Oc1cc(C)nn1-c1nc(C)c(C)nc1C [Test drug 3, 3-methyl-1-(3,5,6-trimethylpyrazin-2-yl)-1H-pyrazol-5-yl-2-acetoxybenzoate]		321.4 ± 54.0	30.3 ± 7.1 %	90.1 ± 4.2**^&& %	210.3 ± 15.1	40.1 ± 6.3	356.5 ± 56.6	49.7 ± 12.3 s			3.5 ± 1.6**^& %	better than the groups 2 and 5	1.6 ± 0.7
Cc1cc(OC(=O)c2ccccc2)n(-c2nc(C)c(C)nc2C)n1 [Test drug 4, 3-methyl-1-(3,5,6-trimethylpyrazin-2-yl)-1H-pyrazol-5-yl-benzoate]	4.5 ± 2.5	321.2 ± 17.0	27.0 ± 7.3 %	87.0 ± 5.8**^& %	220.8 ± 16.4	40.0 ± 7.1	370.2 ± 17.2	43.8 ± 14.9 s		1.7 ± 0.7		better than the groups 2 and 5	
Cc1cc(OC(=O)C(C)(C)C)n(-c2nc(C)c(C)nc2C)n1 [Test drug 5, 3-methyl-1-(3,5,6-trimethylpyrazin-2-yl)-1H-pyrazol-5-pivalate]		275.0 ± 20.5	21.2 ± 4.7*^ %	81.6 ± 5.9**^ %	203.3 ± 8.1	39.5 ± 4.4	337.9 ± 26.0	31.5 ± 14.5^ s			2.9 ± 1.0 %		2.7 ± 0.9
